Source: patent publication US20160193364A1, “COMPOSITIONS AND METHODS FOR MODULATING MITOCHONDRIAL PYRUVATE CARRIER ACTIVITY” (University of Utah Research Foundation, priority 2012, published 2016)

What was measured:
MPC1 = target: T1, MPC1 (Saccharomyces cerevisiae, UniProt P38857+P53157); assay: 14C-pyruvate uptake into isolated yeast mitochondria expressing wild-type MPC1; assay type: biochemical; conditions: 0.2 mM UK-5099, 2 min preincubation, vs DMSO
T1 construct: expressed in transfected cells; host or cells: S. cerevisiae mpc1Δ strain carrying an MPC1 plasmid; isolated mitochondria
T1 sequence (P53157 1-130): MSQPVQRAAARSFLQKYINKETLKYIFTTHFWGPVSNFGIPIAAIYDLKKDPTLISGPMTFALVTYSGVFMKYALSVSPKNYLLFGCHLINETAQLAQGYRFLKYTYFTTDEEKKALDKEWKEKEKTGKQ
T1 sequence (P38857 1-129): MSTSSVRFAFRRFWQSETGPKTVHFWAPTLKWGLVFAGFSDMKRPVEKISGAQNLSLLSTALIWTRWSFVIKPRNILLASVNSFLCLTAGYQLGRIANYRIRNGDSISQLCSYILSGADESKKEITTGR
Method: (§1) Yeast mitochondria were isolated using a simplified version of the method described by Boldogh and Pon [Wittig et al., 2006]. Briefly, yeast were grown in synthetic 2% raffinose media to an A600˜3.0 and collected. The cells were pelleted, washed with sterile water, re-pelleted, and then frozen at −80° C. Mitochondrial isolation began by thawing the cells on ice, digesting the cell wall with lyticase (Sigma) for one hour to generate spheroplasts. Following 40 minutes in regeneration buffer, spheroplasts were lysed using a Dounce homogenizer. The mitochondria were further purified through several high and low speed centrifugation steps.
(§2) Mitochondria used for pyruvate uptake experiments were extracted from live cells, kept on ice and used within 5 hours of harvest without freezing. An estimate of mitochondrial concentration was calculated using A280. Samples were then diluted to yield equal mitochondrial mass and centrifuged at 10000 rpm for 10 minutes to pellet mitochondria. The supernatant was then removed and the mitochondrial pellet was resuspended in respiratory buffer (120 mM KCl, 5 mM KH2PO4, 1 mM EGTA, and 3 mM HEPES pH 7.4) and placed on ice.
(§3) To initiate pyruvate uptake, 50 μL of mitochondria was added to 100 μL of room temperature respiratory buffer at pH 6.8 in a microcentrifuge tube. […] Five biological replicates were analyzed per group. […]

[1] = target: T2, mitochondrial pyruvate carrier (Rattus norvegicus, UniProt P38718+P63031); conditions: Halestrap 1975; cited from earlier work
T2 sequence (P63031 1-109): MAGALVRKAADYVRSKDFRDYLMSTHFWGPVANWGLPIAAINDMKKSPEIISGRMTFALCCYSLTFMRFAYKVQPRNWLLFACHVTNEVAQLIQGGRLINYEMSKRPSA
T2 sequence (P38718 1-127): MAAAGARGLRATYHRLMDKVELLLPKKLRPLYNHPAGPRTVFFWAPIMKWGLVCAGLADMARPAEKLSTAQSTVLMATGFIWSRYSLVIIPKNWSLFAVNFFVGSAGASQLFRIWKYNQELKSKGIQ

MPC1-D118G = target: T3, MPC1-D118G (Saccharomyces cerevisiae, UniProt P38857+P53157, D118G); assay: 14C-pyruvate uptake into isolated yeast mitochondria expressing MPC1-D118G; assay type: biochemical; conditions: 0.2 mM UK-5099, 2 min preincubation, vs DMSO
T3 construct: expressed in transfected cells; host or cells: S. cerevisiae mpc1Δ strain carrying an MPC1-D118G plasmid; isolated mitochondria
T3 sequence (P53157 whole entry D118G, one chain of several): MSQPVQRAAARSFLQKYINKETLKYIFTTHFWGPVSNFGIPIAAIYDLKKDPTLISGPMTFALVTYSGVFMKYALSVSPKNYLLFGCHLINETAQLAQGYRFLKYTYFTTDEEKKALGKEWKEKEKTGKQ
Method: as §1, §2, §3

mae1Δmpc1Δ double mutant = assay: Growth of mae1Δmpc1Δ yeast expressing wild-type MPC1 on glucose medium lacking leucine; assay type: cell-based, Saccharomyces cerevisiae; conditions: rescue by transgenic wild-type MPC1; 500 μM UK-5099 in plates
Excerpt: Saccharomyces cerevisiae haploid strain BY4741 (MATa his3 leu2 met15 ura3) was used as the parental wild-type strain in the mae1Δ mpc1Δ spot tests and JRY472 (W303a MATa his3 leu2 met15 trp1 ura3) was used as the strain for all other experiments. Single deletion mutations were created in diploid strains by the standard PCR-based homologous recombination method using KanMX4 (kanamycin resistance), NatMX4 (nourseothricin resistance), or HphMX4 (hygromycin B resistance) cassettes to replace the entire gene, followed by sporulation and tetrad dissection to isolate the desired haploid knockout. Double and triple deletion mutants were created by standard crosses. Deletion strains were verified by PCR.
A plasmid library harboring MPC1 mutants was generated by PCR mutagenesis using methods previously described [Hinman et al., 1981]. mpc1Δ mpc3Δ mae1Δ triple mutant yeast cells were transformed with the MPC1 mutant library and plated onto SD-Ura-Leu supplemented 500 μM UK-5099. […] To quantify UK-5099 resistance conferred by the D118G substitution, uniform suspensions of mpc1Δ mpc3Δ mae1Δ triple mutant yeast cells were transformed with 2 μg empty vector, plasmid harboring wild-type MPC1, or plasmid harboring MPC1 D 118G, and then plated onto either SD-Ura, SD-Ura-Leu, or SD-Ura-Leu plus 500 μM UK-5099.

MPC1 D118G = assay: Growth of yeast expressing MPC1 D118G in the presence of UK-5099; assay type: cell-based, Saccharomyces cerevisiae; conditions: D118G substitution in MPC1; 500 μM UK-5099 in plates
Method: A plasmid library harboring MPC1 mutants was generated by PCR mutagenesis using methods previously described [Hinman et al., 1981]. mpc1Δ mpc3Δ mae1Δ triple mutant yeast cells were transformed with the MPC1 mutant library and plated onto SD-Ura-Leu supplemented 500 μM UK-5099. Plates were incubated at 30° C. for 72 hours and mutant plasmids were isolated from viable colonies, amplified in E. coli., and then transformed into naive mpc1Δ mpc3Δ mae1Δ triple mutant yeast cells to confirm the conferral of resistance to UK-5099. An MPC1 mutant containing a D118G substitution was recovered from this screen. To quantify UK-5099 resistance conferred by the D118G substitution, uniform suspensions of mpc1Δ mpc3Δ mae1Δ triple mutant yeast cells were transformed with 2 μg empty vector, plasmid harboring wild-type MPC1, or plasmid harboring MPC1 D 118G, and then plated onto either SD-Ura, SD-Ura-Leu, or SD-Ura-Leu plus 500 μM UK-5099.

With N#C/C(=C\c1cn(-c2ccccc2)c2ccccc12)C(=O)O [UK-5099] as the molecule, how does the “14C-pyruvate uptake into mitochondria” value (MPC1) read?
Its value is “almost completely inhibited”.

What about the “inhibition of carrier activity” value [1] of the same molecule?
The value was “specific and potent inhibitors of carrier activity”.

And the “14C-pyruvate uptake into mitochondria” value (MPC1-D118G)?
Its value is “efficient pyruvate uptake that is resistant to UK-5099”.

What about the “growth on glucose medium lacking leucine” value (mae1Δmpc1Δ double mutant) of the same molecule?
The value was “effectively rescued by transgenic expression of wild-type MPC1 in the absence, but not the presence, of UK-5099”.

And the “growth in the presence of UK-5099” value (MPC1 D118G)?
Its value is “conferred UK-5099 resistance”.
